The values that follow come from patent US8754054B2, “Antibacterial compounds, methods of making them, and uses thereof” (Albany Molecular Research, Inc., priority 2010, dated 2014).

Some results are limits rather than exact numbers.

For assay [1], the system named is P. aeruginosa (ATCC 27853). The assay can be described thus: Antibacterial activity in vitro, NCCLS dilution method (Table 10). The note with it: Gram −. Type of assay: cell-based. The source says:
(§1) NCCLS standards for antimicrobial susceptibility testing using the dilution method were followed. See: Performance Standards for Antimicrobial Susceptibility Testing; Fourteenth Informational Supplement. NCCLS Document M100-S14 (ISBN 1-56238-516-X), 2004. NCCLS, 940 West Valley Road, Suite 1400, Wayne, Pa. 19087-1898 USA, 2004; Methods for Dilution Antimicrobial Susceptibility Tests for Bacteria that Grow Aerobically; Approved Standard—Sixth Edition. NCCLS document M7-A6 (IBSBN 1-56238-486-4), NCCLS, 940 West Valley Road, Suite 1400, Wayne, Pa. 19087-1898 USA, 2003, which are hereby incorporated by reference in their entirety.

For assay [2], the system named is E. coli 102 (ATCC 25922). Described as above. Type of assay: cell-based. The note with it: Gram −, QC strain.
Description: as §1

The subject of assay [3] is S. aureus (ATCC 6538). The assay is described as above. Particulars: Gram +, MSSA. In kind it is cell-based.
Description: as §1

For assay [4], the system named is S. aureus 1725. Described as above. In kind it is cell-based. Particulars: S. aureus 1725, Gram +, LRSA.
Description: as §1

For assay [5], the system named is E. coli 2269. The assay is described as above. Type of assay: cell-based. Particulars: E. coli 2269, Gram −, ESBL-producer.
Description: as §1

The subject of assay [6] is S. epidermidis 1452. The assay is described as above. In kind it is cell-based. Particulars: S. epidermidis 1452, Gram +, MRSE.
Description: as §1

Assay [7] concerns S. aureus (ATCC 43300). The description is as above. Type of assay: cell-based. Particulars: Gram +, MRSA.
Description: as §1

Assay [8] deals with E. faecalis 846. The assay is described as above. Type of assay: cell-based. Particulars: E. faecalis 846, Gram +, VRE.
Description: as §1

Assay [9] relates to S. aureus 2018. The assay is described as above. Type of assay: cell-based. Particulars: S. aureus 2018, Gram +, VISA.
Description: as §1

Assay [10] has as its system M. catarrhalis 557. The description is as above. In kind it is cell-based. The note with it: M. catarrhalis 557, Gram −.
Description: as §1

The subject of assay [11] is S. pneumoniae 975. The description is as above. Type of assay: cell-based. Particulars: S. pneumoniae 975, Gram +, PSSP.
Description: as §1

The subject of assay [12] is S. aureus 2144. Described as above. In kind it is cell-based. Particulars: S. aureus 2144, Gram +, CA, USA 300 Strain.
Description: as §1

Assay [13] relates to E. faecium 700221. The description is as above. Type of assay: cell-based. Particulars: E. faecium 700221, Gram +, VRE.
Description: as §1

Assay [14] deals with S. pneumoniae 376. The assay is described as above. In kind it is cell-based. The note with it: S. pneumoniae 376, Gram +, Quin-R.
Description: as §1

The test system of assay [15] is S. aureus 2012. The assay is described as above. In kind it is cell-based. Particulars: S. aureus 2012, Gram +, VISA.
Description: as §1

Assay [16] relates to S. epidermidis 1597. Described as above. Type of assay: cell-based. The note with it: S. epidermidis 1597, Gram +, MSSE.
Description: as §1

Assay [17] concerns S. marcescens 1635. Described as above. The note with it: S. marcescens 1635, Gram −. In kind it is cell-based.
Description: as §1

Assay [18] deals with H. influenzae 1742. The assay is described as above. Type of assay: cell-based. Particulars: H. influenzae 1742, Gram −, ampR.
Description: as §1

Assay [19] concerns K. pneumoniae 2239. Described as above. Type of assay: cell-based. Particulars: K. pneumoniae 2239, Gram −.
Description: as §1

For assay [20], the system named is S. agalactiae 2033. The description is as above. Type of assay: cell-based. The note with it: S. agalactiae 2033, Gram +.
Description: as §1

Assay [21] relates to S. aureus 1137. Described as above. The note with it: S. aureus 1137, Gram +, MRSA. Type of assay: cell-based.
Description: as §1

For assay [22], the system named is S. aureus 1651. Described as above. Type of assay: cell-based. Particulars: S. aureus 1651, Gram +, LRSA.
Description: as §1

In assay [23] the test system is S. aureus (ATCC 29213). The assay is described as above. In kind it is cell-based. The note with it: Gram +, MSSA.
Description: as §1

In assay [24] the test system is S. pneumoniae 940. The assay is described as above. In kind it is cell-based. Particulars: S. pneumoniae 940, Gram +, PRSP.
Description: as §1

Assay [25] deals with S. saprophyticus 495. The assay is described as above. The note with it: S. saprophyticus 495, Gram +. In kind it is cell-based.
Description: as §1

The test system of assay [26] is H. parainfluenzae 2319 (ATCC 7901). The assay is described as above. Type of assay: cell-based. Particulars: Gram −.
Description: as §1

Assay [27] relates to K. pneumoniae 2262. Described as above. Particulars: K. pneumoniae 2262, Gram −, ampC, MDR. In kind it is cell-based.
Description: as §1

Assay [28] concerns S. pneumoniae 933. Described as above. In kind it is cell-based. The note with it: S. pneumoniae 933, Gram +, MDR.
Description: as §1

Assay [29] relates to S. pyogenes 723. The description is as above. Type of assay: cell-based. Particulars: S. pyogenes 723, Gram +.
Description: as §1

Assay [30] has as its system MRSA 43300. The assay can be described thus: Antibacterial activity, NCCLS dilution method (Table 9). Type of assay: cell-based, S. aureus. Particulars: MRSA 43300; dilution method; labels marked a tested as a mixture of diastereomers. The gist of the method: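 MIC determined by dilution susceptibility testing following NCCLS standards M7-A6 and M100-S14 for aerobically growing bacteria.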

Take `COC(=O)c1c(C)cc2c(c1O)[C@]1(O)C(=O)c3cc4c(c(O)c3C(=O)[C@]1(OC)[C@H](O)C2)C(=O)C=C(N[C@H]1O[C@@H](C)[C@H](OC)[C@@H](O)[C@H]1OC)C4=O` [Cmpd 12]: the “antibacterial activity (dilution susceptibility test)” value (from here on “antibacterial activity”) in [1] is recorded as 32; in [2], 32; in [3], 0.008; in [4], “≦0.06”; in assay [5], 32; in [6], “≦0.06”. The “antibacterial activity” value in [7] was 0.008; in assay [8], “≦0.06”; in assay [9], “≦0.06”; in [10] it was 0.12; in [11], “≦0.06”; in [12], “≦0.06”. Also, the “antibacterial activity” value is on record as 0.06 in assay [13]; “≦0.06” in assay [14]; “≦0.06” in assay [15]; “≦0.06” in assay [16]; 64 in assay [17]; 4 in [18]. Besides, the “antibacterial activity” value is reported as 64 in assay [19]; “≦0.06” in assay [20]; “≦0.06” in assay [21]; “≦0.06” in assay [22]; “≦0.06” in [23]; “≦0.06” in assay [24]. The “antibacterial activity” value in assay [25] was “≦0.06”; in assay [26], 8; in [27], 64; in assay [28] it was “≦0.06”; in assay [29] it was “≦0.06”.
As for `CC(=O)NC[C@H]1CN(c2ccc(N3CCOCC3)c(F)c2)C(=O)O1` [Linezolid], the “antibacterial activity” value in assay [1] is on record as >64; in [2], >64; in assay [3], 0.5; in [4] it was 4; in assay [5], >64; in assay [7], 1. For the same compound, the “antibacterial activity” value in [10] is on record as 8; in assay [11] it was 1; in [13], 1; in assay [14], 1; in [15] it was 1; in assay [17], >64. Further, the “antibacterial activity” value in assay [18] is given as 8; in assay [19] it was >64; in assay [21] it was 4; in [23] it was 4; in assay [24] it was 0.5; in assay [26], 16. Further, in assay [27], the “antibacterial activity” value was >64.
For `C[C@@H](O)[C@H]1C(=O)N2C(C(=O)O)=C(S[C@@H]3CN[C@H](C(=O)N(C)C)C3)[C@H](C)[C@H]12` [Meropenem], the “antibacterial activity” value in [2] was 0.03; in assay [4] it was 0.25; in assay [5] it was 0.03; in assay [10], “≦0.04”; in assay [11], 0.015; in assay [14], 0.015. Besides, the “antibacterial activity” value is >4 in [15]; 0.12 in assay [17]; 0.06 in assay [18]; 0.06 in assay [19]; >4 in assay [21]; 0.12 in assay [23]. In addition, the figures for the “antibacterial activity” value in assay [24], in assay [26] and in assay [27] were 1, 0.03 and >4, respectively.
As to `CN[C@H](CC(C)C)C(=O)N[C@H]1C(=O)N[C@@H](CC(N)=O)C(=O)N[C@H]2C(=O)N[C@H]3C(=O)N[C@H](C(=O)N[C@H](C(=O)O)c4cc(O)cc(O)c4-c4cc3ccc4O)[C@H](O)c3ccc(c(Cl)c3)Oc3cc2cc(c3O[C@@H]2O[C@H](CO)[C@@H](O)[C@H](O)[C@H]2O[C@H]2C[C@](C)(N)[C@H](O)[C@H](C)O2)Oc2ccc(cc2Cl)[C@H]1O` [Vancomycin], the “antibacterial activity” value is reported as >64 in assay [1]; >64 in [2]; 0.5 in assay [3]; 1 in assay [4]; >64 in [5]; 2 in [6]. Further, the “antibacterial activity” value in assay [7] is reported as 2; in assay [8], >64; in assay [9], 8; in assay [10], >64; in assay [11], 0.5; in [12], 1. For the same compound, the “antibacterial activity” value in assay [13] is given as >64; in assay [14], 0.5; in [15], 8; in assay [16] it was 2; in [17], >64; in assay [18] it was >64. Besides, the “antibacterial activity” value in assay [19] is given as >64; in assay [20] it was 0.5; in [21], 1; in [22], 1; in assay [23] it was 1; in assay [24] it was 0.25. Moreover, the “antibacterial activity” value in assay [25] was 1; in assay [26], 64; in [27] it was >64; in assay [28], 0.5; in [29], 0.5.
Take “(6R,6aS,14aR)-Methyl 1,6,8,12,14a-pentahydroxy-11-((2S,3R,4R,5R,6S)-4-hydroxy-3,5-dimethoxy-6-methyltetrahydro-2H-pyran-2-ylamino)-12-((5-(2-hydroxypropyl)furan-3-yl)methyl)-6a-methoxy-3-methyl-7,9,14-trioxo-5,6,6a,7,9,12,14,14a-octahydrobenzo[a]tetracene-2-carboxylate [Example 61]”: in assay [30], the “MRSA 43300 MIC” value came out at 0.06 µg/mL.
